According to patent US7514432B2, “Compounds and methods of treating cell proliferative diseases, retinopathies and arthritis” (Exonhit Therapeutics SA, priority 2003, dated 2009):

Columns and labels:
DLD1 = assay: Cell viability assay (MTT), DLD1; format: cell-based; details: Homo sapiens, DLD-1, 72 h, 10% FBS, 3-day treatment, 1% DMSO
Protocol: (§1) Table 14: 3-day cell viability assay (MTT) in the presence of 10% Fetal Bovine Serum and 1% DMSO, in DLD1, HCT116, MDA-MB-231, MCF7 and HeLa cells. 7.5 10^3 to 1.5 10^4 cells were seeded in 48-well plates in growth medium containing 10% FBS, with or without various concentrations of test compounds. Data were analyzed and IC50s were calculated from dose-response curves using GraphPad Prism. Results summarized in the tables are mean±SEM of 1 to 7 independent experiments.
(§2) In order to determine a compound's effect on cell viability, microculture tetrazolium assays (MTT) were performed as described by Carmichael et al. (1996) with modifications. Four human tumoral cell lines, namely HCT116 colon adenocarcinoma, H460 lung carcinoma, MCF-7 and MDA-MB-231 breast carcinoma cell lines, DLD1 colorectal adenocarcinoma, HeLa adenocarcinoma, HepG2 hepatocellular carcinoma. 3 immortalized but non tumorigenic cell lines, namely NIH3T3 mouse fibroblasts (American Type Culture Collection) and primary hepatocytes (Biopredic international), cultured according to their recommendations together with Human Microvasculature Endothelial Cell line HMEC1 (National Center for Infectious Diseases). Briefly, cells were seeded in 48-well plates 24 hours before drug addition. Cells were treated with 0 to 200 μM (11 concentrations) of compound solubilized in DMSO, adjusting the final concentration of DMSO to 1% in the well. 16 hours, and three or six days after treatment, 0.5 mg/ml MTT (Sigma) was added to the medium and cells were incubated for 1-5 hours at 37° C. before solubilization of formazan crystals in 100% DMSO. Absorbance was measured using a spectrophotometer at a wavelength of 550 nm. Data was analyzed using the GraphPad Prism software (GraphPad Software, Inc.), and IC50 (dose leading to 50% cell death) was calculated from the dose-response curves.

HMEC1 = assay: Cell viability assay (MTT), HMEC1; format: cell-based, Human; details: MTT, 10% FBS, 6-day treatment, 1% DMSO
Procedure, shortened: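 HMEC1 cells seeded 24 h before dosing, then exposed to 0–200 μM compound (11 concentrations) in medium with 10% FBS and 1% DMSO final, refed every 3 days. Viability read on day 6 by MTT (0.5 mg/ml, 1–5 h at 37 °C), absorbance 550 nm; IC50 from dose-response curves, mean±SEM of 1–8 experiments.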

HepG2 = assay: Cell viability assay (MTT), HepG2; format: cell-based; details: Homo sapiens, 10% FBS, 16-hours treatment, 1% DMSO
Protocol: Table 15: 16-hour cell viability assay (MTT) in the presence of 10% Fetal Bovine Serum and 1% DMSO, in HCT116, MDA-MB-231, NIH3T3, HepG2 and primary hepatocytes. 5 10^4 to 10 10^4 cells were seeded in 48-well plates in growth medium containing 10% FBS, with or without various concentrations of test compounds. Data were analyzed and IC50s were calculated from dose-reponse curves using GraphPad Prism. Results summarized in the tables are mean±SEM of 1 to 2 independent experiments.
as §2

[1] = system: Salmonella typhimurium TA 98 and TA 100 strains; assay: Screening Ames test; details: with and without S9 mix; 10 to 5000 μg per plate
Text: The objective of this study was to evaluate the potential of the test items to induce reverse mutation in Salmonella Typhimurium (TA 98 and TA 100 strains). The bacterial reverse mutation test is able to identify substances that cause point mutations, by substitution, addition or deletion of one or a few DNA base-pairs. Mutagenic substances can induce reversion in histidine deficient strains which are then able to grow and form colonies in a histidine-limited medium, while non-reverted cannot. This test is performed in the absence and presence of a rat liver metabolising system (S9 mix). Three known mutagens are used to check sensitivity of test system: sodium azide, 2-nitrofluorene and 2-anthramine.
The dose levels per plate were of 10 to 5000 μg. A preliminary toxicity test was performed followed by the mutagenecity test per se.

NIH3T3 = assay: Boyden chamber migration assay, NIH3T3; format: cell-based, mouse; details: Mus musculus, FBS as chemoattractant
Protocol: FIG. 4: Migration assays. (A) Wound healing assay in REF cells. 7.6 10^4 cells were plated on coverslips 48 hours before the experiment. The cells were pre-treated for 30 min. with the compounds, and then a scrape was done using a pipette tip. The scraped coverslips in treatment medium were put under a thermostated microscope coupled to a video camera. Movies were analyzed as described in material and methods, and velocity and total distance covered by the cells were evaluated. Bar graphs represent the mean±SEM of 2 to 4 experiments. (B) Boyden chamber migration assay in HMEC1, NIH3T3 and MDA-MB-231 cells. 5 10^4 to 7.5 10^4 Cells, resuspended in culture medium with or without FBS and with different compound concentrations, were seeded in the upper Boyden blind well on top of 8 μm pore-sized filters. The ability of the cells to migrate through the filter was assayed in the absence or presence of FBS in the lower Boyden chamber. After 16 hours incubation, the medium was removed and replaced with calcein-AM containing medium. After labeling, cells were washed with HBSS and fluorescence was read in a fluorescence plate reader. Fluorescence values were normalized against the fluorescence obtained for the 1% DMSO control. The data plotted are the means±SEM of 2 to 4 independent experiments.
An essential characteristic of malignant cells is their ability to migrate, invade host tissues and to produce metastases. In order to evaluate the capacity of one compound to affect the ability of tumoral cells to migrate, migration assays were performed using highly invasive tumoral cells MDA-MB-231, endothelial cells HMEC1 or fibroblastic cells NIH3T3. This assay was performed using Falcon HTS Fluoroblock inserts. Culture medium containing Fetal Bovine Serum (FBS; which is used as a chemoattractant) was added to the plate wells and 2 10^4 to 7.5 10^4 cells resuspended in medium without FBS and with 0.1% BSA were added to each insert well. The compound of interest was added to the medium in both the upper and the lower chambers. Plates were incubated for 16 hours at 37° C. Following incubation, the medium was removed from the upper chamber and the entire insert plate was transferred to a second 24-well plate containing 4 μg/ml Calcein-AM™ in medium containing 0.1% BSA. The plates were incubated for one hour at 37° C., rinsed with Hanks Buffered Saline (HBSS). Fluorescence data were collected using Fluoroskan Ascent FL fluorescence plate reader at an excitation wavelength (Ex) of 485 nm and emission wavelength (Em) of 517 nm. Only those labelled cells that passed through the Matrigel layer and the membrane were detected. Data were analyzed using the GraphPad Prism software and IM50s (dose at which 50% inhibition of cell migration is observed) were calculated.

MCF7 = assay: Cell viability assay (MTT), MCF7; format: cell-based; details: Homo sapiens, 10% FBS, 1% DMSO
Protocol: as §1, with “Table 12: 6-day” for “Table 14: 3-day”, “in HMEC1,” for “in DLD1,”, “and NIH3T3 cell lines. 3” for “and HeLa cells. 7.5”, “to 15 10^3” for “to 1.5 10^4”, “compounds. Cell cultures were fed every 3 days with the appropriate media. Cell viability was determined on day 6.” for “compounds.”, “to 8” for “to 7”
as §1, §2

Cl.Cl.O=c1cc(CN2CCOCC2)occ1OCCCCCSc1ccnc2cc(C(F)(F)F)ccc12 [EHT 1864, 5-(5-(7-(Trifluoromethyl)quinolin-4-ylthio)pentyloxy)-2-(morpholinomethyl)-4H-pyran-4-one dihydrochloride]
IC50 (DLD1): 21.9 µM | IC50 (HMEC1; Homo sapiens, HMEC-1, 144 h): 27.4 µM | IC50 (HepG2): 60 µM | mutagenic activity [1]: did not show any mutagenic activity | IC50 (NIH3T3; NIH3T3, 16 hours): 20.4 ± 3.5 µM | IC50 (MCF7; MCF7, 72 h, 3-day treatment): 15.2 µM | IC50 (MCF7; MCF7, 144 h, 6-day treatment): 5.6 µM

Cl.Cl.Cl.O=c1cc(CN2CCNCC2)occ1OCCCCCSc1ccnc2cc(C(F)(F)F)ccc12 [EHT 8560, 5-(5-(7-(Trifluoromethyl)quinolin-4-ylthio)pentyloxy)-2-((piperazin-1-yl)methyl)-4H-pyran-4-one trihydrochloride]
IC50 (DLD1): 5.6 µM | IC50 (HMEC1; Homo sapiens, HMEC-1, 144 h): < 10 µM | IC50 (HMEC1; trihydrochloride): 6.1 µM | IC50 (HepG2): 9.75 µM | mutagenic activity [1]: did not show any mutagenic activity | IC50 (NIH3T3; NIH3T3, 16 h): 10 ± 0.6 µM | IC50 (MCF7; MCF7, 72 h, 3-day treatment): 9.2 µM

CN1CCN(Cc2cc(=O)c(OCCCCCSc3ccnc4cc(C(F)(F)F)ccc34)co2)CC1.Cl.Cl.Cl [EHT 9241, 5-(5-(7-(Trifluoromethyl)quinolin-4-ylthio)pentyloxy)-2-((4-methylpiperazin-1-yl)methyl)-4H-pyran-4-one trihydrochloride]
IC50 (DLD1): 8.1 µM | IC50 (HMEC1; Homo sapiens, HMEC-1, 144 h): < 10 µM | IC50 (HMEC1; trihydrochloride): 8.2 µM | IC50 (HepG2): 11.3 µM | mutagenic activity [1]: did not show any mutagenic activity | IC50 (NIH3T3; NIH3T3, 16 h): 4.7 ± 0.6 µM | IC50 (MCF7; MCF7, 72 h, 3-day treatment): 7.5 µM | IC50 (MCF7; MCF7, 144 h, 6-day treatment): 1.2 µM
